Laboratory results from paper PMC10932281, “A Combination of β-Aescin and Newly Synthesized Alkylamidobetaines as Modern Components Eradicating the Biofilms of Multidrug-Resistant Clinical Strains of Candida glabrata” (International Journal of Molecular Sciences, 2024).
In brackets after ≈: the same amount, converted by molar mass. Like-named read-outs stand apart in the source and are kept apart here.

Tests used:
[1] = system: C. glabrata ATCC 90030; experiment: MIC90/MFC, EUCAST broth microdilution; assay type: cell-based, Candida glabrata; details: ATCC 90030
[2] = system: C. glabrata 2853 clinical strain; experiment: MIC90/MFC, EUCAST broth microdilution; assay type: cell-based, Candida glabrata
[3] = system: Balb/3T3 mouse embryonic fibroblasts; experiment: Cell proliferation assay (MTT test); assay type: cell-based; details: 24 h
Method: Balb/3T3 (ATCC CCL-163) mouse embryonic fibroblasts were cultured in DMEM medium supplemented with 10% fetal bovine serum, 1 mM L-glutamine, and a 1% penicillin/streptomycin solution and were used for our cytotoxicity studies. The cells were cultured at 37 °C and 5% CO2 until the cell density of 10^6 mL^−1 was obtained. Such cells were then seeded in 24-well tissue microplates (2 × 10^4 cells per well) and allowed to adhere overnight under the abovementioned conditions. Cytotoxicity tests were carried out on the cells prepared in this way.
The newly synthesized AABs (C9, C11, C13, and C15) were selected based on previous studies. They were analyzed at the concentrations of 0.25, 0.5, 1, 2, and 3 µM. […] The BALB-3T3 cells were treated with the prepared mixtures, dissolved in a complete cell culture medium, and then incubated for 24 h under the abovementioned conditions. Three independent replicates were performed for each combination of compounds.
The cytotoxic effect of the tested compounds in combination with β-AE was evaluated by measuring mitochondrial dehydrogenase activity using the MTT assay. After a 24 h incubation period, the medium supplemented with the 1mM MTT solution was added to each well. The cultures were continued for another 4 h under the conditions enriched with 5% CO2. After this time, the supernatant was collected, and MTT formazan was extracted from the cells using DMSO. The reaction was then stopped with Sörensen buffer (0.1 mol/L glycine; 0.1 mol/L NaCl; and pH 10.5). The percentage of cytotoxicity was calculated by comparing the absorbance values (λ = 560 nm) of the test sample to the control sample, which was untreated fibroblast cells. In the test performed, the negative control (C−) (sample not treated; PBS added) and positive control (C+) were fibroblast cells treated with 1% SDS [60].

[4] = system: C. glabrata strains (ATCC 90030, 2586, 2853); experiment: MIC, statements for all tested strains together; assay type: cell-based, Candida glabrata; details: all the tested C. glabrata strains, AAB alone
[5] = system: C. glabrata 2586 biofilm; experiment: Biofilm eradication on polystyrene, fluorescence microscopy (Syto9/PI); assay type: cell-based, Candida glabrata; details: Nakaseomyces glabratus, 2586BIOFILM, 72 h, read-out: Biofilm Viability [%] 2586 Live
Method: (§1) C. glabrata biofilm eradication on polystyrene surfaces was assessed according to the following procedure: 1 mL of C. glabrata culture, 10^6 CFU/mL in RMPI 1640 MOPS-buffered medium, was pipetted into the wells of a 48-well adherent plate. Cultures were incubated at 37 °C for 72 h with shaking (400 RPM). […] Non-treated cells were used as the control. This experiment was carried out in triplicate. The analysis of the biofilm eradication of C. glabrata strains on polystyrene surfaces was performed using fluorescence microscopy (FM). For further information, see Section 4.12. below.
(§2) The 72 h biofilm of C. glabrata strains on polystyrene surfaces was stained on 48-well adherent plates with 1 µL of propidium iodide (Ex λ = 543 nm/Em λ = 617 nm) and 1 µL of SYTO9 (Ex λ = 488 nm/Em λ = 503 nm) for 30 min using a LIVE/DEAD BacLight Bacterial Viability Kit (Thermo Fisher Scientific, Waltham, MA USA). Imaging was performed using a fluorescence microscope (FM) BX51 (Olympus, Tokyo, Japan) equipped with an Orca Flash 40 camera (Hamamatsu, Hamamatsu City, Japan) and 10× objective Plan APO. Scale bar = 100 µm. Detailed computer qualitative and quantitative analyses of the obtained pictures were performed by estimating the coverage area on the polystyrene plate (the percentage of the area occupied by the fungal biofilm). The cell viability analysis was performed by calculating the fluorescence intensity of the dyes (Syto9/PI) used. The acquired images were processed and analyzed using Fiji/ImageJ software ver. 1.53c (NIH, Bethesda, MD, USA). First, maximum intensity projections (MIPs) were obtained from stacks of images. The areas of the binary images were transferred into the original live and dead channel MIP images. The mean fluorescence intensities of all detected objects per field of view were calculated using ImageJ’s Analyze Threshold function (Software: ImageJ version 1.53 from Softonic).

[6] = system: C. glabrata ATCC 90030 biofilm; experiment: as above; assay type: cell-based, Candida glabrata; details: Nakaseomyces glabratus, ATCC90030, 72 h, read-out: Biofilm Viability [%] 90030 Live
Method: as §1, §2

[7] = system: C. glabrata 2853 biofilm; experiment: as above; assay type: cell-based, Candida glabrata; details: Nakaseomyces glabratus, 2853BIOFILM, 72 h, read-out: Biofilm Viability [%] 2853 Live
Method: as §1, §2

[8] = Krafft temperature (TK); assay type: physicochemical
Method: CHNS elemental analysis was carried out by a Vario EL cube (Elementar, Germany) calibrated on acetanilide. Electrospray ionization mass spectroscopy (ESI-MS) (micrOTOF-Q instrument; Bruker Daltonics, Germany) allowed for the MS spectra to be obtained. The ESI-MS instrument was operated in the positive ion mode and calibrated with the Tunemix^TM mixture (Bruker Daltonics, Germany). The mass accuracy was better than 5 ppm. The obtained mass spectra were analyzed using DataAnalysis 3.4 software (Bruker Daltonics, Germany). ^1H NMR spectra were recorded on a Bruker AMX-500 spectrometer, using CDCl3 as a solvent. ^1H chemical shifts (in ppm) were calibrated to TMS as an internal reference. Melting points were determined using a Boetius melting point apparatus, while Krafft temperatures were determined according to the directions given in [47]. CMC is the minimum concentration above which micelles are formed in aqueous liquid. To obtain the CMC values, we used McGowan’s model. […] Molecular characteristic volumes (Vx) are found by the addition of the atomic characteristic volumes and the subtraction for the same factory (6.56 × 10^−6 m^3 mol^−1) for every covalent bond.

[9] = system: C. glabrata 2586 clinical strain; experiment: MIC90/MFC, EUCAST broth microdilution; assay type: cell-based, Candida glabrata
[10] = system: C. glabrata 2853; experiment: Interaction of AABs (3 µM) with antifungal agents, modified checkerboard; assay type: cell-based, Candida glabrata; details: for Multiplicity factor (MF) with C9: C9 3 µM
[11] = system: C. glabrata 2586; experiment: FICI checkerboard, β-aescin with antifungal drugs; assay type: cell-based, Candida glabrata; details: combination with β-aescin
[12] = system: C. glabrata ATCC 90030; experiment: FICI checkerboard, β-aescin with antifungal drugs; assay type: cell-based, Candida glabrata
[13] = system: C. glabrata ATCC 90030; experiment: Interaction of AABs (3 µM) with antifungal agents, modified checkerboard; assay type: cell-based, Candida glabrata
[14] = system: C. glabrata 2586; experiment: as above; assay type: cell-based, Candida glabrata
[15] = system: biofilms of C. glabrata DSM 1226 and two clinical isolates; design: method as in PMID 37508306; details: combination with β-AE; biofilms of three strains; ref [12]; cited from earlier work
[16] = system: C. glabrata 2853; experiment: FICI checkerboard, β-aescin with antifungal drugs; assay type: cell-based, Candida glabrata
[17] = C9 at constant 3 µM, dilutions in µg/mL
[18] = C11 at constant 3 µM, dilutions in µg/mL
[19] = C13 at constant 3 µM, dilutions in µg/mL
[20] = C15 at constant 3 µM, dilutions in µg/mL
[21] = Nakaseomyces glabratus, read-out: MFC
[22] = Nakaseomyces glabratus, read-out: MIC90

Compound `CCCCCCCCCCCCCCCC(=O)N(C)CCC[N+](C)(C)CC(=O)[O-]` [C15] has an MIC90 ([1]; AAB alone) greater than 3 µM/mL, an MIC90 ([2]; AAB alone) greater than 3 µM/mL and a Decrease of viability ([3]; 0.25 µm/mL) of 15%. The Decrease of viability ([3]; 0.5 µm/mL) was 28%, the MIC ([4]; Nakaseomyces glabratus, ATCC90030, read-out: MIC converted to) was 1240 mg/L (≈ 3 mM) and the MIC [4] was 3 µM/mL. The viability at 1 µM ([5]; AAB alone 1 μM) was 6.07%, the viability at 2 µM ([5]; AAB alone 2 μM) was 2.33% and the viability at 3 µM ([5]; AAB alone 3 μM) was 6.23%. It also gave a viability at 1 µM ([6]; AAB alone 1 μM) of 41.9%, a viability at 2 µM ([6]; AAB alone 2 μM) of 28.8% and a viability at 3 µM ([6]; AAB alone 3 μM) of 41.4%. The viability at 1 µM ([7]; AAB alone 1 μM) was 63%, the viability at 2 µM ([7]; AAB alone 2 μM) was 17% and the viability at 3 µM ([7]; AAB alone 3 μM) was 6.64%. For the same compound, the “TK (Krafft temperature)” value [8] was 36.4 °C and the MIC90 ([9]; AAB alone) was greater than 3 µM/mL.

With `OC(Cn1cncn1)(Cn1cncn1)c1ccc(F)cc1F` [Fluconazole] the “Multiplicity factor (MF) with C9” value [10] was 1, the “Multiplicity factor (MF) with C9” value ([10]; listed as fluconazole) was “did not interact” and the “MIC90 of antimycotic combined with C9” value [10, 17] was 32. For the same compound, the “Multiplicity factor (MF) with C11” value ([10]; C11 3 µM) was 2, the “MIC90 of antimycotic combined with C11” value [10, 18] was 16 and the “Multiplicity factor (MF) with C13” value ([10]; C13 3 µM) was 2. The “MIC90 of antimycotic combined with C13” value [10, 19] was 16, the “Multiplicity factor (MF) with C15” value ([10]; C15 3 µM) was 16 and the “MIC90 of antimycotic combined with C15” value [10, 20] was 2. The FICI [11] was 1.25, the MFC ([1]; Nakaseomyces glabratus, ATCC90030, read-out: MFC) was 2050 mg/L (≈ 6.69 mM) and the MIC90 ([1]; Nakaseomyces glabratus, ATCC90030, read-out: MIC90) was 2050 mg/L (≈ 6.69 mM). The MFC [2, 21] was 2050 mg/L (≈ 6.69 mM), the MIC90 [2, 22] was 32 mg/L (≈ 0.104 mM) and the “Type of interaction with β-AE (by FICI)” value [12] was “synergistic”. The FICI ([12]; combination with β-aescin) was 0.25, the “Multiplicity factor (MF) with C9” value ([13]; C9 3 µM, |MF| = MIC90 alone/MIC90 with AAB) was 16 and the “MIC90 of antimycotic combined with C9” value [13, 17] was 128. The “Multiplicity factor (MF) with C11” value ([13]; C11 3 µM) was 64, the “MIC90 of antimycotic combined with C11” value [13, 18] was 32 and the “Multiplicity factor (MF) with C13” value ([13]; C13 3 µM) was 64. The “MIC90 of antimycotic combined with C13” value [13, 19] was 32, the “Multiplicity factor (MF) with C15” value ([13]; C15 3 µM) was 64 and the “MIC90 of antimycotic combined with C15” value [13, 20] was 32. The “Multiplicity factor (MF) with C9” value ([14]; C9 3 µM) was 8, the “Multiplicity factor (MF) with C11” value ([14]; C11 3 µM) was 64 and the “MIC90 of antimycotic combined with C11” value [14, 18] was 32. The “Multiplicity factor (MF) with C13” value ([14]; C13 3 µM) was 64, the “MIC90 of antimycotic combined with C13” value [14, 19] was 32 and the “Multiplicity factor (MF) with C15” value ([14]; C15 3 µM) was 64. The “MIC90 of antimycotic combined with C15” value [14, 20] was 32, the FICI [15] was no more than 0.5 and the “Type of interaction with β-AE (by FICI)” value [16] was “additive”. For the same compound, the FICI ([16]; combination with β-aescin) was 0.75, the MFC [9, 21] was 2050 mg/L (≈ 6.69 mM) and the MIC90 [9, 22] was 2050 mg/L (≈ 6.69 mM).
